From patent US20100317731A1, “Hyperhidrosis treatment” (priority 2009, published 2010)

How the values were obtained:
Type in all cases: in vivo, human
[1] = test system: patients with excessive sweating (drug-induced hyperhidrosis); test: Clinical examples: single patient case reports of excessive sweating treated with topiramate
[2] = test system: patients who complained of excessive sweating; test: Open label study of 26 patients with excessive sweating treated with topiramate; settings: 26 patients (18 females, 8 males), total daily dose 25 mg to 100 mg, subjective assessment and report, all on one or more antidepressant
Experimental: In an open label study of 26 patients (18 females and 8 males) who complained of excessive sweating were treated with topiramate on the basis of off label prescribing. The patients were informed of the off-label nature of the treatment and they were counseled about the potential side effects of topiramate. The total daily dose ranged from 25 mg to 100 mg. Over 95% of patients experienced a significant response based on their subjective assessment and report. Patients were all adults with an age range from 25 yrs to 79 yrs. All the patients were on one or more antidepressant including various SSRI's with or without Bupropion. However, several of the patients had experienced excessive sweating for other reasons and before the use of antidepressants, even though adding the antidepressant exacerbated their underlying hyperhidrosis. Some of the underlying causes included perimenopause/menopause as well as primary or idiopathic hyperhidrosis. some had identified vulnerability from before, only made worse by antidepressants.

[3] = test system: patients with excessive sweating; test: Inventor's data and observations in patients with excessive sweating
Source text: Based on data and observations that the inventor has, they have found topiramate (Topamax®) to have the following, previously undiscovered, beneficial pharmacological effects for patients with excessive sweating: The patient population in which the inventor has seen these benefits included both men and women ranging in age from 25 to 79 years. […] Optionally, the topiramate can be taken as a low dose on an as-needed basis to treat these sweating episodes. […] The inventor became convinced that topiramate was effective in the treatment of excessive sweating. They observed the improvement in patients whose sweating was induced by various antidepressant medications. Some experienced such sweating severity that they had to change their bedding at night as well as their night clothes. Others found it too embarrassing in the day time to the extent that it interfered with their work and social life; and some became reluctant to take their required antidepressant.

[4] = men and women aged 25 to 79 years
[5] = patients with excessive sweating

Question: What does the source list for `CC1(C)O[C@@H]2[C@@H](CO[C@@]3(COS(N)(=O)=O)OC(C)(C)O[C@@H]23)O1` [topiramate]?
Answer: excessive sweating, patient report ([1]; Example 1, a person, Cymbalta 60 mg daily, retrial of topiramate 25 mg twice daily): much better; excessive sweating, patient report ([1]; Example 1, a person, Cymbalta 80 mg daily, topiramate raised from 50 mg daily to 50 mg twice daily): after initial improvement with the topiramate increase, the excessive sweating has recurred; excessive sweating, patient report ([1]; Example 2, a person, Cymbalta and Wellbutrin XL, topiramate 25 mg daily): much better; adverse effects, patient report ([1]; Example 2, a person, topiramate 25 mg per day): no adverse effects; excessive sweating, patient report ([1]; Example 3, a person, Effexor XR 300 mg daily, topiramate 50 mg daily): much improvement; adverse effects, patient report ([1]; Example 3, a person, topiramate 50 mg daily): no adverse effects; excessive sweating, patient report ([1]; Example 4, a person, Zoloft, topiramate 25 mg twice daily): improved; effectiveness when taken on an as needed basis ([1]; Example 4, a person, Zoloft, topiramate as needed): effective; adverse effects, patient report ([1]; Example 4, a person, topiramate): no adverse effects; excessive sweating, patient report ([1]; Example 5, a person, Wellbutrin XL, Cymbalta, Pristiq, topiramate 50 mg daily): suboptimal improvement; excessive sweating, patient report ([1]; Example 5, a person, topiramate 50 mg twice daily, improvement reported for five months thereafter): satisfactory; excessive perspiration, patient report ([1]; Example 6, a person, Wellbutrin XL and Cymbalta, topiramate 25 mg daily, over eighteen months): satisfactory resolution; adverse effects, patient report ([1]; Example 6, a person, topiramate 25 mg daily, over eighteen months): without any adverse effects; excessive sweating, patient report ([1]; Example 7, a person, Aricept and Cymbalta 30 mg, topiramate 25 mg then 50 mg at bedtime): complete resolution; adverse effects, patient report ([1]; Example 7, a person, topiramate 25 mg then 50 mg at bedtime): no adverse effects; patients who experienced a significant response [2]: Over 95%; effectiveness against drug-induced hyperhidrosis at low dose ([3]; doses as low as 12.5 mg per day in an adult): highly effective; incidence of side effects at low dosage ([3]; low dosage): without significant incidence of those side effects; benefit in the patient population [3, 4]: all benefited; side effects in the patient population [3, 4]: minimal side effects; effect on excessive sweating caused by antidepressants and similar medications [3, 5]: Substantial improvement; effect on excessive sweating caused by primary or idiopathic hyperhidrosis [3, 5]: Substantial improvement; effect on excessive sweating from other miscellaneous causes of hyperhidrosis [3, 5]: Substantial improvement; effect on excessive sweating, idiopathic or drug-induced [3, 5]: Substantial improvement; effectiveness when used on an as needed basis [3, 5]: effective
